Data taken from patent publication US10945981B2, “Methods for treating familial adenomatous polyposis” (CANCER PREVENTION PHARMACEUTICALS, INC., priority 2019, dated 2021).
Entries after “also recorded” stand apart in the source; their conditions may differ.

What was measured:
[1] = in vivo; cited from earlier work
patients with FAP = details: cited from earlier work
[2] = system: patients with Familial Adenomatous Polyposis (FAP); assay: Randomized, double-blind phase III trial in FAP patients: FAP-related events (efficacy); type: in vivo, human; details: for Mean time to first FRE: Kaplan-Meier estimated; for Hazard ratio: combination versus the arm named
Description: Patients were stratified by anatomic site with highest polyp burden and surgical status: (a) post colectomy with rectal or ileal pouch polyposis (longest projected time to first FRE); (b) with duodenal polyposis (intermediate projected time to first FRE); and (c) pre-colectomy (shortest projected time to first FRE) prior to randomization to minimize treatment imbalance.
A stratified randomization procedure was used with stratification based on FAP-related time-to-first-event prognosis (see FIG. 1). The event prognosis groups were represented by 1) best (i.e., longest projected time to first FAP-related event)—rectal/pouch polyposis (Post-colectomy (≥3 years S/P IRA or IPAA with >10 polyps; any polyps >5 mm excised at baseline)), 2) intermediate—duodenal polyposis (Spigelman Stage 3 or 4 or Spigelman Stage 3 or 4 down-staged to Spigelman 1 or 2 within the past 6 months), and 3) worst—pre-colectomy. If a subject has two or more of these disease sites, the most severe prognosis stratum was assigned for randomization (e.g. worst>intermediate>best). Since an individual may have more than one disease site involved, the trial assessed time to any defined FAP-related event in the subject as a whole. In order to minimize potential treatment arm imbalance a centralized randomization process was used to balance among treatment groups within prognostic strata.
Lower GI Endoscopy: Patients were evaluated via colonoscopy, flexible or rigid procto-sigmoidoscopy during the screening phase. Biopsies, ablations, and snare excisions at baseline were performed per the clinician's standard of care. If considered eligible based on inclusion criteria, a grossly normal mucosa biopsy was obtained for baseline polyamine measurement. Still and video documentation of the colon (vide infra) or the residual rectum or entire pouch was also obtained for archiving. Polyp size was determined by visual comparison with biopsy forceps that can measure 5.0-5.5 mm in the fully open position. All randomized patients with an intact colon or rectum/pouch had baseline and on-study lower GI endoscopy procedures as part of this trial.
Upper GI Endoscopy: The duodenum was evaluated by forward-viewing and/or side-viewing gastroscopes (with still and video documentation with closed and open biopsy forceps near mucosa). All randomized patients with a duodenum had baseline and on-study UGI endoscopy as part of this trial. Subjects stratified to the duodenal group must have duodenal biopsies of all polyps 1 cm or larger to determine HGD and histology required for determining Stage 3 or 4 Spigelman status.
FAP-related primary events by disease site were as follows: • 1. Pre-operative, intact colon: Disease progression indicating need for colectomy with IRA or total procto-colectomy • 2. Retained rectum or pouch events include one or more of the following: • a) Excisional intervention by endoscopic snare or trans-anal excision to remove any polyp ≥10 mm in size (per pathology report) and/or pathologic evidence of high grade dysplasia. • b) Disease progression indicating need for proctectomy or pouch resection • 3. Duodenal disease includes the following: • a) Progression in Spigelman Stage to more advanced stage (Stage 2, 3 or 4) • b) Disease progression indicating need for excisional intervention (sub-mucosal resection, trans-duodenal excision, ampullectomy, duodenectomy, Whipple procedure) • c) Development of cancer
At six month intervals (+/−two weeks), subjects underwent repeat upper and lower endoscopy. […] Video recordings of all procedures and qualitative assessments were compared to the exam 6 months prior.

[3] = oral, cited from earlier work
[4] = system: patients with Familial Adenomatous Polyposis (FAP); assay: Randomized, double-blind phase III trial in FAP patients: safety (adverse events); details: for Treatment-related serious adverse events: 1 patient each
[5] = human, in vivo; cited from earlier work
[6] = disease site colon, number of subjects
[7] = disease site duodenum, number of subjects
[8] = disease site rectum and pouch, number of subjects
[9] = post-colectomy, rectal/ileal pouch stratum

In the case of `Cc1ccc(-c2cc(C(F)(F)F)nn2-c2ccc(S(N)(=O)=O)cc2)cc1` [celecoxib, 4-[5-(4-Methylphenyl)-3-(trifluoromethyl)pyrazol-1-yl]benzenesulfonamide], the “Increase in rates of heart and blood vessel disease” value [1] is listed as 30%, the “Risk of gastrointestinal side effects” value [1] is listed as “greater than 80%” and the “Reduction of measures of global tumor burden from baseline” value (patients with FAP) is listed as 30%. For the same compound, the “Reduction of the number of colonic adenomas” value (patients with FAP) was 1%.
With `CC1=C(CC(=O)O)c2cc(F)ccc2/C1=C\c1ccc([S+](C)[O-])cc1` (stereo not drawn) [Sulindac, (Z)-5-fluoro-2-methyl-1-((4-(methylsulfinyl)phenyl)methylene)-1H-indene-3-acetic acid] the “Kaplan-Meier estimated mean time to first FRE” value ([2]; ITT population) was 23.6 months, the Event-free rate ([2]; ITT population, cumulative) was 63.1% and the “FREs occurred, percent of patients” value ([2]; ITT population, cumulative) was 37.9%. The “Surgical FAP-related events, Colon: Event-free proportion” value ([2]; disease site colon) was 69.2%, the “Surgical FAP-related events, Colon: Colectomy” value [2, 6] was 2 and the “Surgical FAP-related events, Colon: Disease progression” value [2, 6] was 4. For the same compound, the “Surgical FAP-related events, Duodenum: Event-free proportion” value ([2]; disease site duodenum) was 70.2%, the “Surgical FAP-related events, Duodenum: Disease progression” value [2, 7] was 10 and the “Surgical FAP-related events, Duodenum: Excisional intervention” value [2, 7] was 6. The “Surgical FAP-related events, Duodenum: Spigelman stage progression” value [2, 7] was 7, the “Surgical FAP-related events, Rectum and Pouch: Event-free proportion” value ([2]; disease site rectum and pouch) was 95% and the “Surgical FAP-related events, Rectum and Pouch: Disease progression” value [2, 8] was 2. For the same compound, the “Surgical FAP-related events, Rectum and Pouch: Proctectomy/pouch resection” value [2, 8] was 1, the “FRE type: Duodenal excision” value ([2]; duodenal polyposis stratum) was 6 and the “FRE type: Duodenal excision and Spigelman stage progression” value ([2]; duodenal polyposis stratum) was 2. For the same compound, the “FRE type: Duodenal excision and ≥ 10 mm polyp removed in rectum/pouch” value ([2]; duodenal polyposis stratum) was 1, the “FRE type: Proctocolectomy and ≥ 10 mm polyp removed in rectum/pouch” value ([2]; duodenal polyposis stratum) was 1 and the “FRE type: Spigelman stage progression” value ([2]; duodenal polyposis stratum) was 3. The “FRE type: ≥10 mm polyp removed in rectum/pouch” value ([2]; duodenal polyposis stratum) was 1, the “Patients with FRE, %” value ([2]; duodenal polyposis stratum) was “(41.2) %” and the “Total FRE” value ([2]; duodenal polyposis stratum) was 14. The “Mean time to first FRE” value ([2]; duodenal polyposis stratum) was 21.1 months, the “Risk reduction versus combination” value ([2]; duodenal polyposis stratum, combination relative to the arm named) was 29% and the Hazard ratio ([2]; duodenal polyposis stratum) was 0.716. For the same compound, the “Patients with FRE, %” value ([2]; duodenal polyposis stratum, listed as sulindac) was 41.2%, the “Progression of lower gastrointestinal polyposis: surgeries” value ([2]; human, in vivo) was 3 and the “Patients with duodenal polyposis progression who underwent duodenal excisional procedures” value ([2]; number of patients) was 6. For the same compound, the “FRE type: Pouch resection” value [2, 9] was 1, the “FRE type: ≥10 mm polyp removed in rectum/pouch” value [2, 9] was 1 and the “Patients with FRE, %” value [2, 9] was “(18.2) %”. The “Total FRE” value [2, 9] was 2, the “Mean time to first FRE” value [2, 9] was 27.5 months and the “Risk reduction versus combination” value ([2]; post-colectomy, rectal/ileal pouch stratum, combination relative to the arm named) was 16%. The Hazard ratio [2, 9] was 0.841, the “Patients with FRE, %” value ([2]; post-colectomy, rectal/ileal pouch stratum, listed as sulindac) was 18.2% and the “FRE type: Colectomy” value ([2]; pre-colectomy stratum) was 4. The “FRE type: Duodenal excision and Spigelman stage progression” value ([2]; pre-colectomy stratum) was 1, the “FRE type: Spigelman stage progression” value ([2]; pre-colectomy stratum) was 1 and the “Patients with FRE, %” value ([2]; pre-colectomy stratum) was “(46.2) %”. The “Total FRE” value ([2]; pre-colectomy stratum) was 6, the “Mean time to first FRE” value ([2]; pre-colectomy stratum) was 25.2 months and the Hazard ratio ([2]; pre-colectomy stratum) was 0.299. For the same compound, the “Patients with FRE, %” value ([2]; pre-colectomy stratum, listed as sulindac) was 46.2%, the “Risk reduction versus combination” value ([2]; pre-colectomy stratum, risk reduction for FRE of the combination relative to the arm named) was 70% and the “Event Rate of FAP-related Surgery Events in Lower GI” value ([2]; subjects with lower GI anatomy) was 6/58 (10%). The “Lower GI surgery events: Need colectomy” value ([2]; subjects with lower GI anatomy) was 4, the “Lower GI surgery events: Need pouch resection” value ([2]; subjects with lower GI anatomy) was 1 and the “Lower GI surgery events: Need proctectomy” value ([2]; subjects with lower GI anatomy) was 1. The “Lower GI surgery events: Total Surgical Events” value ([2]; subjects with lower GI anatomy) was 6, the “Progression of lower gastrointestinal polyposis: polypectomies” value ([2]; ≥10 mm in size and/or high grade dysplasia) was 4 and the “Time to peak plasma levels” value ([3]; fasting patients) was “about 2 hours”. For the same compound, the “Drug absorbed after oral administration” value [3] was “about 90%”, the “Discontinuations due to AEs, number of patients” value [4] was 6 patients and the “Discontinuations due to AEs, percent of patients” value [4] was 10.3%. The “TRAE reported by % of patients” value [4] was 73.7%, the “Treatment-related hearing adverse events: Hearing loss N” value [4] was 2 and the “Treatment-related hearing adverse events: Tinnitus N” value [4] was 5. The “Treatment-related serious adverse events” value [4] was “Severe Nausea; also recorded: Deep Vein Thrombosis; also recorded: Worsening of Depression; also recorded: Spontaneous Abortion”, the “Treatment-related serious adverse events” value ([4]; listed as sulindac) was “severe nausea, deep vein thrombosis, worsening of depression, and spontaneous abortion” and the Death ([4]; safety population) was 0 n (%). The “Number of patients discontinuing due to a TRAE” value ([4]; safety population) was 5 (8.8) n (%), the “Number of patients reporting TEAEs” value ([4]; safety population) was 50 (87.7) n (%) and the “Number of patients reporting TEAEs ≥ Grade 3” value ([4]; safety population) was 12 (21.1) n (%). For the same compound, the “Number of patients reporting TRAE: Abdominal distension” value ([4]; safety population) was 3 (5.3) n (%), the “Number of patients reporting TRAE: Abdominal pain” value ([4]; safety population) was 4 (7.0) n (%) and the “Number of patients reporting TRAE: Alopecia” value ([4]; safety population) was 3 (5.3) n (%). The “Number of patients reporting TRAE: Decreased appetite” value ([4]; safety population) was 4 (7.0) n (%), the “Number of patients reporting TRAE: Depression” value ([4]; safety population) was 3 (5.3) n (%) and the “Number of patients reporting TRAE: Diarrhea” value ([4]; safety population) was 3 (5.3) n (%). The “Number of patients reporting TRAE: Dizziness” value ([4]; safety population) was 2 (3.5) n (%), the “Number of patients reporting TRAE: Dyspepsia” value ([4]; safety population) was 4 (7.0) n (%) and the “Number of patients reporting TRAE: Fatigue” value ([4]; safety population) was 4 (7.0) n (%). For the same compound, the “Number of patients reporting TRAE: Flatulence” value ([4]; safety population) was 3 (5.3) n (%), the “Number of patients reporting TRAE: Frequent bowel movements” value ([4]; safety population) was 1 (1.8) n (%) and the “Number of patients reporting TRAE: Gastritis erosive” value ([4]; safety population) was 0 n (%). The “Number of patients reporting TRAE: Headache” value ([4]; safety population) was 7 (12.3) n (%), the “Number of patients reporting TRAE: Hematochezia” value ([4]; safety population) was 2 (3.5) n (%) and the “Number of patients reporting TRAE: Nausea” value ([4]; safety population) was 9 (15.8) n (%). The “Number of patients reporting TRAE: Pruritus” value ([4]; safety population) was 4 (7.0) n (%), the “Number of patients reporting TRAE: Rash” value ([4]; safety population) was 0 n (%) and the “Number of patients reporting TRAE: Rectal hemorrhage” value ([4]; safety population) was 4 (7.0) n (%). For the same compound, the “Number of patients reporting TRAE: Thrombocytopenia” value ([4]; safety population) was 3 (5.3) n (%), the “Number of patients reporting TRAE: Tinnitus” value ([4]; safety population) was 5 (8.8) n (%) and the “Number of patients reporting TRAE: Upper abdominal pain” value ([4]; safety population) was 1 (1.8) n (%). The “Number of patients reporting TRAE: Vomiting” value ([4]; safety population) was 4 (7.0) n (%), the “Number of patients reporting TRAEs” value ([4]; safety population) was 42 (73.7) n (%) and the “Number of patients reporting TRSAEs” value ([4]; safety population) was 4 (7.0) n (%). For the same compound, the “Mild gastrointestinal effects, percent of patients” value [5] was roughly 20% and the “Skin rash and pruritus, percent of patients” value [5] was 5%.
